Measured values as given in patent US11241438B2, “Formulations of an AXL/MER inhibitor” (Incyte Corporation, priority 2018, dated 2022).
Where a name gives a salt, the structure may show the parent alone. Read-outs that look alike come from different tables or passages of the source.

Experiments:
[1] = target: T1, phosphor-Axl (Homo sapiens (Human), UniProt P30530); assay: TAM enzymatic assay (HTRF), Axl; format: biochemical
Protocol: Axl Autophosphorylation Assay
Autophosphorylation of Axl was carried out by incubating the recombinant Axl protein (Life Technologies, PV4275) in buffer containing 50 mM Tris, pH7.5, 0.2 mg/ml Axl, 5 mM ATP, 20 mM MgCl2 and 2 mM DTT at room temperature for 1 hour.
(§1) The kinase assay buffer contained 50 mM HEPES, pH7.5, 10 mM MgCl2, 1 mM EGTA, 0.01% NP-40 and 2 mM DTT. 0.1 ul test compounds dissolved in DMSO were transferred from compound plates to white 384-well assay plates (Greiner […] plates). The final concentration of DMSO was 1.25%. Enzyme solutions of 5.1 nM phosphor-Axl, or 0.0625 nM c-Mer (Carna Biosciences, 08-108), or 0.366 nM Tyro3 (Life Technologies, PR7480A) were prepared in assay buffer. A 1 mM stock solution of peptide substrate Biotin-[…]-amide SEQ ID NO: 1 (Quality Controlled Biochemicals, MA) dissolved in DMSO was diluted to 1 uM in assay buffer containing 2000 uM ATP. 4 ul enzyme solution (or assay buffer for the enzyme blank) was added to the appropriate wells in each plate, and then 4 ul/well substrate solution was added to initiate the reaction. […] The plate was incubated for 1 h at room temperature, and HTRF (homogenous time resolved fluorescence) signal was measured on a PHERAstar FS plate reader (BMG labtech). Percentage of inhibition was calculated for each concentration and IC50 value was generated from curve fitting with GraphPad Prism software.

[2] = target: T2, c-Mer (Homo sapiens (Human), UniProt Q12866); assay: TAM enzymatic assay (HTRF), Mer; format: biochemical
Protocol: as §1, with “reaction. The plate was protected from light and incubated at room temperature for 60 min.” for “reaction.”

[3] = Solubility study in aqueous surfactant solutions; format: physicochemical; details: thermodynamic from solid, 37° C., after 60 minutes stirring, theoretical maximum 0.20 mg/ml, read-out: Concentration (solubility)
Protocol: The solubility of Compound I maleate was determined in aqueous solution in the presence of several surfactants at 37° C. The surfactants included sodium lauryl sulfate (SLS), poloxamer 188, and poloxamer 407 at a concentration of 0.2% (w/v) in water; a vessel without surfactant was included as a control. The experiment was performed in a Distek 2100 dissolution bath using 500 ml of media stirred at 100 RPM (USP type II dissolution apparatus). 100 mg of drug substance (free base equivalent) was added to the media to give a theoretical maximum concentration of 0.20 mg/ml. 5 ml samples were taken and filtered with a 0.45 micron GHP filter prior to analysis by HPLC. Listed below are the observed concentrations for the samples after 60 minutes of stirring time.

[4] = target: T1, phosphor-Axl; details: data disclosed in U.S. Pat. No. 9,981,975; cited from earlier work
[5] = target: T2, c-Mer; details: data disclosed in U.S. Pat. No. 9,981,975; cited from earlier work

T2 sequence (Q12866 21-999): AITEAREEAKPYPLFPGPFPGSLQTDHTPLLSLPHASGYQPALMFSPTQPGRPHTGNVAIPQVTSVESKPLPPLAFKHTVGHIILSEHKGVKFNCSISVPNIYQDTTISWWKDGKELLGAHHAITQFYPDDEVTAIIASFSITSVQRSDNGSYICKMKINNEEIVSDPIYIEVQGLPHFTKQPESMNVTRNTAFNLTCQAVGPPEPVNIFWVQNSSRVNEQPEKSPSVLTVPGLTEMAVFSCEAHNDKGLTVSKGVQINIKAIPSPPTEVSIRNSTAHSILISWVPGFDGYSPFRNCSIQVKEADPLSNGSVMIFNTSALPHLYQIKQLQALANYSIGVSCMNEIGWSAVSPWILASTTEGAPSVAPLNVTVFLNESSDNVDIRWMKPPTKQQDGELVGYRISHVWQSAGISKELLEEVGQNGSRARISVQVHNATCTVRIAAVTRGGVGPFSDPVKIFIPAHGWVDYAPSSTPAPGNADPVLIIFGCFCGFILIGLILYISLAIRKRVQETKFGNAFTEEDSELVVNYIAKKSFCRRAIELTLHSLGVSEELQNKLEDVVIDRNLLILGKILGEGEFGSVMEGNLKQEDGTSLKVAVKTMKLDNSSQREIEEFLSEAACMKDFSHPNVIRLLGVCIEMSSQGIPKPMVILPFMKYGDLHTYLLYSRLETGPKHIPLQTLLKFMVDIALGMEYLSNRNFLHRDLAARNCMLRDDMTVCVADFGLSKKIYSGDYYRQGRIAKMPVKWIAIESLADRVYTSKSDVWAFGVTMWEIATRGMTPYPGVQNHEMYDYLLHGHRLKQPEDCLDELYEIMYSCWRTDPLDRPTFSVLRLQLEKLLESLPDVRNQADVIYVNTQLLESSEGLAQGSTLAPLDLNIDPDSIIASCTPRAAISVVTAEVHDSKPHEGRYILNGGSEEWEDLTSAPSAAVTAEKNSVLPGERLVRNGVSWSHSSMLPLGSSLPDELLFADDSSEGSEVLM
T1 sequence (P30530 26-894): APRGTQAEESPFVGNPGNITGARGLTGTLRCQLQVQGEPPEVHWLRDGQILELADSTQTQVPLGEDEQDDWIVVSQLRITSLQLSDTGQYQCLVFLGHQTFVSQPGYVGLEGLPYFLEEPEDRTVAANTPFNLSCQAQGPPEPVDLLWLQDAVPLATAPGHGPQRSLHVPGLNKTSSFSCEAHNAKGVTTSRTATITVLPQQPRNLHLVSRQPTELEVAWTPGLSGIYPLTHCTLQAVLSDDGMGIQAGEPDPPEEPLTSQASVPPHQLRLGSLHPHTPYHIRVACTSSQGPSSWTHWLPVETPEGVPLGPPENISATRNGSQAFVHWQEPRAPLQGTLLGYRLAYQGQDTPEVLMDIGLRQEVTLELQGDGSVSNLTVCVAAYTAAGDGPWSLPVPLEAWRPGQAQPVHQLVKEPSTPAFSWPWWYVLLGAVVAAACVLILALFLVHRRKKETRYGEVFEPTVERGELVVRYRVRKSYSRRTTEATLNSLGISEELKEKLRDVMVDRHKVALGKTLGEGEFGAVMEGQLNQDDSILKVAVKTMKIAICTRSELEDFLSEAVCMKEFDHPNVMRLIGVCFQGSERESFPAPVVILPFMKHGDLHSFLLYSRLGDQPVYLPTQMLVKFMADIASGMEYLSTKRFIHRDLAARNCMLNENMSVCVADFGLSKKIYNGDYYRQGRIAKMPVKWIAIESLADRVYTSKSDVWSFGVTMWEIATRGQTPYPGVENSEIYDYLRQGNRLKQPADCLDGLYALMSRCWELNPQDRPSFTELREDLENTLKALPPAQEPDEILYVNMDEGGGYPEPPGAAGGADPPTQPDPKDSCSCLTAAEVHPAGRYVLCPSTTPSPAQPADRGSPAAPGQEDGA

| Compound | IC50 [1] | IC50 [2] | solubility at 60 min ([3]; 0.2% (w/v) poloxamer 188 in water, aqueous with cosolvent or surfactant or cyclodextrin, 0.2% Poloxamer 188 in water) | solubility at 60 min ([3]; 0.2% (w/v) poloxamer 407 in water, aqueous with cosolvent or surfactant or cyclodextrin, 0.2% Poloxamer 407 in water) | solubility at 60 min ([3]; 0.2% (w/v) sodium lauryl sulfate in water, aqueous with cosolvent or surfactant or cyclodextrin, 0.2% SLS in water) | solubility at 60 min ([3]; water without surfactant (control), water (no surfactant)) | IC50 [4] | IC50 [5] |
| --- | --- | --- | --- | --- | --- | --- | --- | --- |
| CC(C)C(=O)N1CCC(c2cc(-c3ccc(NC(=O)c4cn(C(C)C)c(=O)n(-c5ccccn5)c4=O)cc3)c3c(N)ncnn23)CC1.O=C(O)/C=C\C(=O)O [Compound I maleate, N-(4-(4-amino-7-(1-isobutyrylpiperidin-4-yl)pyrrolo[2,1-f][1,2,4]triazin-5-yl)phenyl)-1-isopropyl-2,4-dioxo-3-(pyridin-2-yl)-1,2,3,4-tetrahydropyrimidine-5-carboxamide maleate] | < 5 nM | < 5 nM | 18 µg/mL | 9 µg/mL | > 200 µg/mL | 7 µg/mL | – | – |
| CC(C)C(=O)N1CCC(c2cc(-c3ccc(NC(=O)c4cn(C(C)C)c(=O)n(-c5ccccn5)c4=O)cc3)c3c(N)ncnn23)CC1 [Compound I trifluoroacetic acid salt] | – | – | – | – | – | – | < 5 nM | < 5 nM |
